Results reported in patent US9957271B2, “Substituted bicyclic aza-heterocycles and analogues as sirtuin modulators” (GlaxoSmithKline, LLC, priority 2012, dated 2018).

Biological target: T1, SIRT1 (Homo sapiens, UniProt Q96EB6)
T1 sequence (Q96EB6 1-747): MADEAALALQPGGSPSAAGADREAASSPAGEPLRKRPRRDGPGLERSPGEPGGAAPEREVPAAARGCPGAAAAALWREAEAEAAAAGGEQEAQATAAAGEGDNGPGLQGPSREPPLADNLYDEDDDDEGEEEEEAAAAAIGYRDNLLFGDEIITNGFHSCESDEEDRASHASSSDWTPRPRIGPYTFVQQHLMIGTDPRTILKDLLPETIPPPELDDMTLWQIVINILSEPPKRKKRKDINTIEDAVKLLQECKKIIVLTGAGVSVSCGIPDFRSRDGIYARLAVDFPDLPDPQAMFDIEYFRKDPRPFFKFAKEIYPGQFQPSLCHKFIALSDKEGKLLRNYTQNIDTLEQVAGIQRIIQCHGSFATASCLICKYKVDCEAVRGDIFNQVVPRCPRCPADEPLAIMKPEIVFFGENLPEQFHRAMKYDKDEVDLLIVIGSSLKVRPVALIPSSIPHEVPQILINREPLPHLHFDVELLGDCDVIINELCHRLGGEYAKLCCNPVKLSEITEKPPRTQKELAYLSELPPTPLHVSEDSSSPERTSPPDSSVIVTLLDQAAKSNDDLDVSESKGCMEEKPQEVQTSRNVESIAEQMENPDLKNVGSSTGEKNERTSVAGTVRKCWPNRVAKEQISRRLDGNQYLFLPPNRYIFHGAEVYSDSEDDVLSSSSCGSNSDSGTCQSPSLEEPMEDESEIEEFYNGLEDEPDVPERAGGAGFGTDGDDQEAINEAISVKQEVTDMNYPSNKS
Test: TAMRA based mass spectrometry assay of SIRT1 activity
Format: biochemical
Conditions: TAMRA assay; for TAMRA EC1.5 (μM): concentration giving 150% activation of SIRT1; for Emax: read-out: TAMRA % Fold Act
Method in brief: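 Deacetylation of a biotinylated, TAMRA-tagged p53-based peptide (0.5 μM) by 10 nM His-tagged SIRT1 with 120 μM βNAD+, 25 °C for 25 min, pH 8 Tris-acetate buffer, across a compound concentration range. Quenched by formic acid and read by mass spec as product peptide or OAADPR; activity relative to DMSO reactions, nicotinamide defining maximal inhibition.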

[1] = percent maximum fold activation

SMILES	TAMRA EC1.5 (μM)	Emax [1]	TAMRA % Fold Act [1]
N#Cc1ccccc1-c1ccc2ncc(C(=O)Nc3ccccn3)n2n1 [Compound 200]	B (EC1.5 1-25 μM)	< 350%	
N#Cc1ccccc1-c1ccc2ncc(C(=O)Nc3cnccn3)n2n1 [Compound 205]	B (EC1.5 1-25 μM)	< 350%	
Cc1cc2ncc(C(=O)Nc3cccc(N4CCOCC4)n3)n2nc1-c1ccccc1C(F)(F)F [Compound 209]	A (EC1.5<1 μM)	≥ 350%	
O=C(Nc1cccc(OCC(O)CO)n1)c1cnc2ccc(-c3ccccc3C(F)(F)F)nn12 (stereo not shown) [Compound 212, N-(6-(2,3-dihydroxypropoxy)pyridin-2-yl)-6-(2-(trifluoromethyl)phenyl)imidazo[1,2-b]pyridazine-3-carboxamide]	A (EC1.5<1 μM)	≥ 350%	
O=C(Nc1cncc(N2CCOCC2)c1)c1cnc2ccc(-c3ccccc3C(F)(F)F)nn12 [Compound 217]	A (EC1.5<1 μM)	≥ 350%	
Cc1cnc(C(=O)Nc2cnc3ccc(-c4ccccc4C(F)(F)F)nn23)cn1 [Compound 219, 5-methyl-N-(6-(2-(trifluoromethyl)phenyl)imidazo[1,2-b]pyridazin-3-yl)pyrazine-2-carboxamide]	A (EC1.5<1 μM)	≥ 350%	
Cc1nc(C(=O)Nc2cnc3ccc(-c4ccccc4C(F)(F)F)nn23)c(C)s1 [Compound 220]	A (EC1.5<1 μM)	≥ 350%	
Cc1cc2ncc(C(=O)Nc3ccnc(N4CCC4)c3)n2nc1-c1ccccc1C(F)(F)F [Compound 225]	A (EC1.5<1 μM)	≥ 350%	
O=C(Nc1nccc(OCC(O)CO)n1)c1cnc2ccc(-c3ccccc3C(F)(F)F)nn12 (stereo not shown) [Compound 226]	B (EC1.5 1-25 μM)	≥ 350%	
Cc1c(-c2ccccc2Cl)nn2c(C(=O)Nc3cccc(N4CCOCC4)n3)cnc2c1C [Compound 229]	A (EC1.5<1 μM)	≥ 350%	
O=C(Nc1ccncc1)c1cnn2ccc(-c3ccccc3C(F)(F)F)nc12 [Compound 240, N-(pyridin-4-yl)-5-(2-(trifluoromethyl)phenyl)pyrazolo[1,5-a]pyrimidine-3-carboxamide]	A (EC1.5<1 μM)	≥ 350%	
Cc1cc2ncc(C(=O)Nc3cnccn3)n2nc1-c1ccccc1C(F)(F)F [Compound 246]	B (EC1.5 1-25 μM)	≥ 350%	
O=C(Nc1cnn2ccc(-c3ccccc3C(F)(F)F)nc12)c1cccnc1 [Compound 250]	C (EC1.5>25 μM)	< 350%	
O=C(Nc1cnn2ccc(-c3ccccc3C(F)(F)F)nc12)c1ncccn1 [Compound 252]	B (EC1.5 1-25 μM)	≥ 350%	
O=C(Nc1cnn2ccc(-c3ccccc3C(F)(F)F)nc12)c1cccc(N2CCOCC2)n1 [Compound 256]	A (EC1.5<1 μM)	≥ 350%	
O=C(Nc1cccc(OCC(F)(F)F)n1)c1cnc2ccc(-c3ccccc3F)nn12 [Compound 258]	C (EC1.5>25 μM)	< 350%	
O=C(Nc1cccc(OCC(F)(F)F)n1)c1cnc2ccc(-c3ccccc3Cl)nn12 [Compound 262]	C (EC1.5>25 μM)	< 350%	
O=C(Nc1ccccn1)c1cnn2ccc(-c3ccccc3C(F)(F)F)nc12 [Compound 265, N-(pyridin-2-yl)-5-(2-(trifluoromethyl)phenyl)pyrazolo[1,5-a]pyrimidine-3-carboxamide]	A (EC1.5<1 μM)	≥ 350%	
Cc1ccnc(NC(=O)c2cnc3ccc(-c4ccccc4C(F)(F)F)nn23)n1 [Compound 270]	A (EC1.5<1 μM)	≥ 350%	
CC(C)c1nccc(C(=O)Nc2cnc3ccc(-c4ccccc4C(F)(F)F)nn23)n1 [Compound 274]	A (EC1.5<1 μM)	≥ 350%	
CC(CO)(CO)Oc1nccc(NC(=O)c2cnc3ccc(-c4ccccc4C(F)(F)F)nn23)n1 [Compound 278]	B (EC1.5 1-25 μM)	< 350%	
O=C(Nc1cnc2ccc(-c3ccccc3F)nn12)c1ncccn1 [Compound 282]	B (EC1.5 1-25 μM)	< 350%	
O=C(Nc1cnc2ccc(-c3ccccc3Cl)nn12)c1cnccn1 [Compound 288]	B (EC1.5 1-25 μM)	< 350%	

The remaining lines, values ahead:

TAMRA EC1.5 (μM)	Emax [1]	TAMRA % Fold Act [1]	SMILES
B (EC1.5 1-25 μM)	≥ 350%		N#Cc1ccccc1-c1ccc2ncc(C(=O)Nc3ccnc(N4CCC4)c3)n2n1 [Compound 201]
B (EC1.5 1-25 μM)	< 350%		N#Cc1ccccc1-c1ccc2ncc(C(=O)Nc3cccc(CN4CCOCC4)n3)n2n1 [Compound 202]
B (EC1.5 1-25 μM)	< 350%		N#Cc1ccccc1-c1ccc2ncc(C(=O)Nc3ccncc3)n2n1 [Compound 203]
A (EC1.5<1 μM)	≥ 350%		Cc1cc(-c2ccccc2C(F)(F)F)nn2c(C(=O)Nc3cnccn3)cnc12 [Compound 208]
C (EC1.5>25 μM)	< 350%		O=C(Nc1ncccc1N1CCOCC1)c1cnc2ccc(-c3ccccc3C(F)(F)F)nn12 [Compound 211]
B (EC1.5 1-25 μM)	≥ 350%		O=C(Nc1ccc(N2CCOCC2)nc1)c1cnc2ccc(-c3ccccc3C(F)(F)F)nn12 [Compound 216]
A (EC1.5<1 μM)	≥ 350%		Cc1cc(C)nc(NC(=O)c2cnc3c(C)c(C)c(-c4ccccc4C(F)(F)F)nn23)c1 [Compound 228]
A (EC1.5<1 μM)	≥ 350%		Cc1cccnc1C(=O)Nc1cnc2ccc(-c3ccccc3C(F)(F)F)nn12 [Compound 232]
A (EC1.5<1 μM)	≥ 350%		Cc1cccc(C(=O)Nc2cnc3ccc(-c4ccccc4C(F)(F)F)nn23)n1 [Compound 234]
A (EC1.5<1 μM)		A (Fold activation ≥350%)	O=C(Nc1cnc2ccc(-c3ccccc3C(F)(F)F)nn12)c1cccc(OCC(O)CO)n1 (stereo not shown) [Compound 235]
A (EC1.5<1 μM)	≥ 350%		Cc1nc(NC(=O)c2cnc3ccc(-c4ccccc4C(F)(F)F)nn23)sc1C [Compound 237]
A (EC1.5<1 μM)	≥ 350%		O=C(Nc1cccc(N2CCOCC2)n1)c1cnn2ccc(-c3ccccc3C(F)(F)F)nc12 [Compound 241]
A (EC1.5<1 μM)	≥ 350%		Cc1cc(C)nc(NC(=O)c2cnc3ccc(-c4ccccc4F)nn23)c1 [Compound 243]
A (EC1.5<1 μM)	≥ 350%		Cc1cc(C)nc(NC(=O)c2cnc3ccc(-c4ccccc4Cl)nn23)c1 [Compound 245]
A (EC1.5<1 μM)	≥ 350%		Cc1cc(C)nc(NC(=O)c2cnc3ccc(-c4ccccc4C(F)(F)F)nn23)n1 [Compound 247]
B (EC1.5 1-25 μM)	≥ 350%		O=C(Nc1cnn2ccc(-c3ccccc3C(F)(F)F)nc12)c1cnccn1 [Compound 253]
B (EC1.5 1-25 μM)	≥ 350%		Cc1cc(NC(=O)c2cnc3ccc(-c4ccccc4Cl)nn23)ccn1 [Compound 259]
B (EC1.5 1-25 μM)	≥ 350%		O=C(Nc1cccc(OCC(F)(F)F)n1)c1cnc2ccc(-c3ccccc3C(F)(F)F)nn12 [Compound 264]
A (EC1.5<1 μM)	≥ 350%		O=C(Nc1ccncn1)c1cnn2ccc(-c3ccccc3C(F)(F)F)nc12 [Compound 268]
A (EC1.5<1 μM)	≥ 350%		Cc1scnc1C(=O)Nc1cnc2ccc(-c3ccccc3C(F)(F)F)nn12 [Compound 271]
A (EC1.5<1 μM)	≥ 350%		Cc1ccc(NC(=O)c2cnc3ccc(-c4ccccc4C(F)(F)F)nn23)nn1 [Compound 276]
A (EC1.5<1 μM)	≥ 350%		Cc1cc(OCC2(C)COC2)nc(NC(=O)c2cnc3ccc(-c4ccccc4C(F)(F)F)nn23)n1 [Compound 277]
B (EC1.5 1-25 μM)	< 350%		O=C(Nc1cnc2ccc(-c3ccccc3F)nn12)c1cnccn1 [Compound 280]
A (EC1.5<1 μM)	< 350%		O=C(Nc1ccnc(OCC(O)CO)c1)c1cnc2ccc(-c3ccccc3Cl)nn12 (stereo not shown) [Compound 283]
B (EC1.5 1-25 μM)	< 350%		Cc1cc(OCC(O)CO)nc(NC(=O)c2cnc3ccc(-c4ccccc4F)nn23)n1 (stereo not shown) [Compound 286]
B (EC1.5 1-25 μM)	< 350%		O=C(Nc1cnc2ccc(-c3ccccc3Cl)nn12)c1ccncn1 [Compound 289]
A (EC1.5<1 μM)	≥ 350%		Cc1nc(C(=O)Nc2cnc3ccc(-c4ccccc4Cl)nn23)cs1 [Compound 292]
